Earlier results in patent US20240261217A1, “NUTRACEUTICAL GUMMY COMPOSITIONS AND METHOD OF PREVENTING ALCOHOL OVERCONSUMPTION SYMPTOMS” (LiQure, Inc., priority 2023, published 2024).
Entries after “also recorded” stand apart in the source; their conditions may differ.

Key:
intoxicated mice = details: DHM administered to intoxicated mice
[1] = system: alcohol dehydrogenase (ADH)
[2] = system: acetaldehyde dehydrogenase (ALDH)
[3] = recent studies
liver = details: mouse, in vivo
[4] = in vivo

O=C1c2c(O)cc(O)cc2O[C@H](c2cc(O)c(O)c(O)c2)[C@H]1O [DHM, Dihydromyricetin]
anti-hangover benefits (intoxicated mice): provide “anti-hangover” benefits
liver-protection properties (intoxicated mice): possesses liver-protection properties
effect on activity of alcohol dehydrogenase (ADH) [1]: enhances the activity of these enzymes
effect on activity of acetaldehyde dehydrogenase (ALDH) [2]: enhances the activity of these enzymes
hangover symptoms compared with people who did not take DHM (during a hangover): fewer headaches, less dizziness, less nausea, and less weakness during a hangover
symptoms when taking DHM after drinking alcohol (studies and anecdotal reports, users): fewer headaches, less nausea, less vomiting and less anxiety
effect on blood alcohol levels [3]: can reduce blood alcohol levels
effect on alcohol-induced liver damage (liver): can also prevent (and help repair) alcohol-induced liver damage; also recorded: protect the liver from alcohol-induced damage
amount found to mitigate symptoms of over-intoxication from alcohol [4]: 100 to 650 mg
